Experimental data from patent publication US8167866B2, “Drug delivery system for accelerated subcutaneous absorption” (priority 2004, dated 2012).

Experiments:
[1] = typical duration; routine lidocaine versus tumescent infiltration; cited from earlier work
cutaneous blood vessels = assay: topical application of aqueous solution, erythema of the affected area; format: in vivo, human; conditions: patient, within minutes
Source text: The fluid or the solution of pharmacologic drug may include a crystalloid solution or a dilute solution of pharmacologic drug such as an antibiotic. The drug used to accelerate the absorption rate of the fluid or the pharmacologic drug is operative to cause capillary vasodilatation, that is, vasodilatation of cutaneous blood vessels. The dilation of capillaries increases the rate of blood flowing through the affected subcutaneous tissue; and consequently, increases the rate of absorption into the systemic circulation of the fluid or pharmacologic drug. As the rate of absorption and circulation of the fluid or pharmacologic drug increases, a clinically significant degree of systemic absorption of the fluid or pharmacologic drug can be achieved without the application of IV access. Currently, many drugs are available to provide the vasodilatation of cutaneous blood vessels of a human body. However, it is appreciated that those drugs which are pharmacologic and potentially toxic to the human bodies are not the appropriate candidates for such drug. For example, although lidocaine is effective to cause dilation of capillaries and increase the rate of blood flowing through affected subcutaneous tissue, which in turn accelerates the absorption rate of drug, it might not be an appropriate candidate for such a drug due to its potentially toxic effect if its concentration is too high. […]

| SMILES | duration of local anesthesia [1] | erythema of the affected area (cutaneous blood vessels) |
| --- | --- | --- |
| CCN(CC)CC(=O)Nc1c(C)cccc1C [lidocaine] | ~2 h | – |
| CNC(=O)c1cccnc1 [methyl-nicotinamide] | – | very obvious erythema |
| COC(=O)c1cccnc1 [methyl-nicotinate] | – | very obvious erythema |
